# Assays:
# [1] = Metabolic identification in mouse hepatocytes; format: in vitro ADME; conditions: up to 120 min
# Procedure: (§1) A 10 mM stock of test compound from Example 2 (sodium 2-(3-((5-cyclopropyl-3-(2-(trifluoromethoxy)phenyl)isoxazol-4-yl)methoxy)-8-azabicyclo[3.2.1]octan-8-yl)-4-fluorobenzo[d]thiazole-6-sulfinate) was prepared in DMSO. 20 μM of final working stock was then prepared by diluting 4 μL of 10 mM stock in 1996 μL of Krebs-Hensleit buffer. 200 μL of hepatocyte cell suspension (2×10^6 cells/mL) was added to TPP 48 well plate and preincubated for 30 min @ 37° C. in incubator. 200 μL of 20 μM working stock of test compound was added to the cell suspension and incubated in an incubator on vibramax at a shaking speed of 500 rpm. For the 0 min sample, 25 μL of hepatocyte suspension was precipitated with 200 μL of acetonitrile and 25 μL of 20 μM test compound was added. The reaction was stopped at 15, 30, 60, 90, 120 min by precipitating 50 μL of incubation mixture with 200 μL of acetonitrile. The samples were vortexed for 5 min at 1200 rpm and centrifuged at 4000 rpm for 10 min. The supernatant was separated, diluted 2 fold with water and analysed using a HPLC (Shimadzu SIL HTS) and mass spectrometer (5500 Qtrap). Acetonitrile and 0.1% formic acid in Milli-q-water were used as the mobile phase, using a column of either Waters Xbridge C18, 250×3.0 mm, 5.0μ particle size or Phenomnex kinetex 5μ EVO C18 100 A, 50×4.6 mm 5.0μ particle size. […]
# [2] = test system: HFHC fed male C57BL/6 mice; assay: In-vivo efficacy in high fat high cholesterol diet (HFHC) fed male C57BL/6 mice; conditions: oral, 3 mg/kg BID, 3 mg/kg QD and 10 mg/kg BID, after 28 days
# Procedure: C57BL/6J male mice were purchased at the age of 8 weeks. After an acclimation period of 1 week, animals were maintained on high fat high cholesterol diet (Research diets) with 60% kcal from fat plus 0.5% (w/w) extra cholesterol (Research diet, D02051401) for a period of 4 weeks. Age matched control animals (n=6) were maintained on normal chow. Mice were dosed with vehicle, test compounds and GW4064 morning (7.00 AM) and evening (5:00 PM) from day 0 to 27. At 28th day, animals were dosed at 7:00 AM and kept on fasting for next 4 hours before blood and tissues collection. Plasma samples separated from collected blood were stored at −20° C. immediately for estimation analysis. The samples were analyzed using the Siemens Dimension RxL Max Clinical chemistry analyzer.
# Right liver lobe was used for the test compounds exposure, triglyceride and cholesterol estimation. Liver tissues were dissected, weighed and snap frozen and stored at −80° C. for further analysis of hepatic triglyceride, cholesterol and compound exposure. In brief, stored tissues were thawed to room temperature and triglycerides were extracted by homogenizing 25 mg of liver tissues in 1 ml of 5% Triton X100 (Lot No. 61K01741-Sigma Aldrich) in water. Homogenized tissues were slowly heated to 80° C. in water bath for 5 minutes. The samples were cooled down and again heated to solubilize all the triglycerides into solution. The samples were centrifuged for 5 minutes at 4000 RPM and supernatant was collected for quantification^3 using commercially available kit from ERBA (Lot No. B061832).
# Homogenized samples were centrifuge at 13000 g for 10 minutes to remove insoluble material. The organic phase was separated into new tube and air dried at 50° C. to remove chloroform. Thereafter, samples were vacuumed for 30 minutes to remove residue organic solvent. Dried lipids were dissolved in 200 μL of cholesterol assay buffer (provided with Sigma cholesterol assay kit Lot No. B2J210603V), sonicated for 20 minutes and vortexed until mixture was homogenous as mentioned in kit protocol. Samples were diluted with cholesterol assay buffer at (1:10) ratio to fit in standard curve and finally 50 μL of diluted samples were used for the assay.
# Compound levels were also measured in the plasma and liver to understand its distribution profile.
# STAM model NASH mice = assay: In-vivo efficacy in STAM model of non-alcoholic steatohepatitis; conditions: oral once daily for three weeks, 0.3, 1 or 3 mg/kg
# Procedure: NASH was induced in male mice by a single subcutaneous injection of 200 μg streptozotocin (STZ, Sigma-Aldrich, USA) solution 2 days after birth and feeding with high fat diet (HFD, 57 kcal % fat, Cat #HFD32, CLEA Japan, Inc., Japan) after 4 weeks of age. NASH model mice were randomized into groups of 8 mice at 6 weeks of age based on their body weight the day before the start of treatment. The compound of Example 2 was then administered orally in a volume of 10 ml/kg at dose levels 0.3 mg/kg, 1 mg/kg and 3 mg/kg once daily for 3 weeks. […] NAFLD Activity score (NAS) was calculated according to the criteria of Kleiner (Kleiner D E. et al., Hepatology, 2005; 41:1313). […] For quantitative analysis of fibrosis area, bright field images of Sirius red-stained sections were captured around the central vein using a digital camera (DFC295; Leica, Germany) at 200-fold magnification, and the positive areas in 5 fields/section were measured using ImageJ software (National Institute of Health, USA). […] The score can be used to quantify changes in NAFLD during disease progression and on administration of potential therapeutics. In order to quantify the degree of fibrosis Sirius red stained liver sections were used to visualise and study collagen distribution.
# [3] = test system: FXR related genes (BSEP, SHP) in primary human hepatocytes; assay: Gene expression in human primary hepatocytes (BSEP, SHP); format: cell-based; conditions: 24 hours incubation
# Procedure: The test compound was dissolved in buffer to give a 10 mM stock solution. The compound was serially diluted to the desired concentrations and then incubated with human primary hepatocytes for 24 hours at 37° C. in a CO2 incubator. After incubation, the media was removed and the RNA harvested using the Trizol-CHCl3 method and quantified using Nano drop. The RNA was then Reverse Transcribed to cDNA using a superscript vilo cDNA synthesis kit. The cDNA with respective Taqman primers, master mix are then amplified using quantitative RT-PCR system. […] The compounds of examples 2 and 3 upregulate FXR related and disease relevant genes on incubation with primary human hepatocytes. […] It is a uni-directional, ATP-dependent efflux transporter that plays an important role in the elimination of bile salts from the hepatocyte into the bile canaliculi for export into the gastrointestinal tract. FXR also induces the expression of small heterodimer partner (SHP) which controls a complex set of genes in multiple metabolic pathways. It reduces the expression of CYP7A1, a liver-specific enzyme that catalyzes the first and rate-limiting step in one of the two pathways for bile acid biosynthesis.
# [4] = Metabolic identification in dog hepatocytes; format: in vitro ADME; conditions: up to 120 min
# Procedure: as §1
smiles,measurement,setting,value
"O=S([O-])c1cc(F)c2nc(N3[C@@H]4CC[C@H]3C[C@@H](OCc3c(-c5ccccc5OC(F)(F)F)noc3C3CC3)C4)sc2c1.[Na+] [Example 2, Sodium 2-(3-((5-cyclopropyl-3-(2-(trifluoromethoxy)phenyl)isoxazol-4-yl)methoxy)-8-azabicyclo[3.2.1]octan-8-yl)-4-fluorobenzo[d]thiazole-6-sulfinate]",Acyl-Glucuronide,[1],No
same,Observed Major Metabolites,[1],"Hydroxy, Di-hydroxy and Alkenyl-hydroxy"
same,Cholesterol levels in the liver,[2],reductions
same,Cholesterol levels in the plasma,[2],reductions
same,Liver triglycerides,[2],reductions
same,Fibrosis area (Sirius red positive area),STAM model NASH mice,Significant reductions
same,NAFLD Activity score (NAS),STAM model NASH mice,Significant reductions
same,"Expression of FXR related and disease relevant genes (BSEP, SHP)",[3],upregulate
same,Acyl-Glucuronide,[4],No

# — US20230096663A1, “FARNESOID X RECEPTOR MODULATING COMPOUNDS AND METHODS OF USING THE SAME” (Inorbit Therapeutics AB, priority 2020, published 2023)
